According to the supplement of paper PMC10307832:

Columns and labels:
Assay in all cases: relative viability (nuclei count vs DMSO), 5 days (fraction); higher = more cells survive
Doxorubicin + Lapatinib = compound: COc1cccc2c1C(=O)c1c(O)c3c(c(O)c1C2=O)C[C@@](O)(C(=O)CO)C[C@@H]3O[C@H]1C[C@H](N)[C@H](O)[C@H](C)O1 [Doxorubicin] + CS(=O)(=O)CCNCc1ccc(-c2ccc3ncnc(Nc4ccc(OCc5cccc(F)c5)c(Cl)c4)c3c2)o1 [Lapatinib] (partner 2 µM)
In short: (§1)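 Lung cancer cell lines in 1536-well plates got either a single drug or a fixed anchor-drug dose together with five library-drug doses (not always all listed) in √10 steps, by pin tool, on the day after seeding. Nuclei were counted after 5 days, and relative viability is the treated-to-vehicle ratio of nuclei counts. Values are medians of duplicate plates.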

BAY61-3606 + Phenformin = compound: COC1=C(C=C(C=C1)C2=CC3=NC=CN3C(=N2)NC4=C(C=CC=N4)C(=O)N)OC [BAY61-3606] + N=C(N)NC(=N)NCCc1ccccc1 [Phenformin] (partner 250 µM)
In short: as §1

BAY61-3606 + Vorinostat = compound: COC1=C(C=C(C=C1)C2=CC3=NC=CN3C(=N2)NC4=C(C=CC=N4)C(=O)N)OC [BAY61-3606] + O=C(CCCCCCC(=O)Nc1ccccc1)NO [Vorinostat] (partner 1 µM)
In short: as §1

Doxorubicin + Vorinostat = compound: COc1cccc2c1C(=O)c1c(O)c3c(c(O)c1C2=O)C[C@@](O)(C(=O)CO)C[C@@H]3O[C@H]1C[C@H](N)[C@H](O)[C@H](C)O1 [Doxorubicin] + O=C(CCCCCCC(=O)Nc1ccccc1)NO [Vorinostat] (partner 1 µM)
In short: as §1

Cell Line	relative viability (Doxorubicin + Lapatinib; first compound 0.001 µM)	relative viability (Doxorubicin + Lapatinib; first compound 0.003162 µM)	relative viability (Doxorubicin + Lapatinib; first compound 0.01 µM)	relative viability (Doxorubicin + Lapatinib; first compound 0.03162 µM)	relative viability (Doxorubicin + Lapatinib; first compound 0.1 µM)	relative viability (BAY61-3606 + Phenformin; first compound 0.02 µM)	relative viability (BAY61-3606 + Phenformin; first compound 0.06325 µM)	relative viability (BAY61-3606 + Phenformin; first compound 0.2 µM)	relative viability (BAY61-3606 + Phenformin; first compound 0.6325 µM)	relative viability (BAY61-3606 + Phenformin; first compound 2 µM)	relative viability (BAY61-3606 + Vorinostat; first compound 0.02 µM)	relative viability (BAY61-3606 + Vorinostat; first compound 0.06325 µM)	relative viability (BAY61-3606 + Vorinostat; first compound 0.2 µM)	relative viability (BAY61-3606 + Vorinostat; first compound 0.6325 µM)	relative viability (BAY61-3606 + Vorinostat; first compound 2 µM)	relative viability (Doxorubicin + Vorinostat; first compound 0.001 µM)	relative viability (Doxorubicin + Vorinostat; first compound 0.003162 µM)	relative viability (Doxorubicin + Vorinostat; first compound 0.01 µM)	relative viability (Doxorubicin + Vorinostat; first compound 0.03162 µM)	relative viability (Doxorubicin + Vorinostat; first compound 0.1 µM)
NCI-H1993	0.823	0.778	0.748	0.633	0.501	0.547	0.502	0.545	0.493	0.543	1.06	0.718	0.756	0.0488	0.67	0.0284	0.67	0.851	0.509	0.462
CAL-12T	0.597	0.656	0.517	0.67	0.404	0.559	0.592	0.502	0.557	0.266	0.827	0.859	0.725	0.81	0.576	0.928	0.808	0.488	0.228	0.153
NCI-H1623						0.58	0.522	0.588	0.58	0.588										
HCC-78	0.752	0.723	0.77	0.673	0.466	0.769	0.719	0.688	0.848	0.915	0.432	0.423	0.444	0.553	0.41	0.445	0.481	0.407	0.51	0.414
EKVX	0.233	0.234	0.228	0.188	0.182	0.239	0.228	0.221	0.222	0.234	0.84	0.685	0.658	0.783	0.775	0.764	0.889	0.762	0.724	0.794
NCI-H1666	0.699	0.507	0.296	0.25	0.236	0.544	0.538	0.524	0.531	0.491	1.02	1.14	1.12	1.05	1.18		1.1	0.972	0.808	0.806
NCI-H2170	0.263	0.264	0.259	0.266	0.285	0.399	0.356	0.434	0.401	0.385	0.835	0.752	0.842	0.83	0.739	0.737	0.939	0.872	0.702	0.881
NCI-H1734	1.07	1.06	0.948	0.53	0.466	0.446	0.338	0.288	0.354	0.244	0.826	0.804	0.651	0.769	0.441	0.737	0.815	0.747	0.558	0.536
Calu-6	0.959	1.05	0.678	0.261	0.221															
EBC-1	0.236	0.21	0.22	0.195	0.181															
NCI-H596	1.08	1.1	1.05	0.943	1.03	0.803	0.806	0.793	0.793	0.737	0.726	0.568	0.514	0.771	0.686	0.533	0.594	0.641	0.605	0.632
A-427	1.1	0.985	1.06	1.04	1.02	0.417	0.235	0.287	0.315	0.257	0.991	0.869	0.876	0.875	0.888	0.913	0.884	0.847	0.647	0.351
NCI-H3122	1.02	1	1.02	1	0.958	0.418	0.308	0.386	0.42	0.384	1.01	1.03	0.893	1.05	0.95	0.839	0.982	0.853	0.907	0.998
NCI-H1437	0.772	0.836	0.61	0.278	0.209	0.345	0.312	0.304	0.283	0.284	0.919	0.915	0.856	0.925	0.751	0.784	0.891	0.812	0.627	0.585
SK-MES-1	0.423	0.444	0.489	0.396	0.409	0.729	0.586	0.633	0.685	0.57	1.14	1.13	1.05	1.11	0.86	1.04	1.15	0.996	0.251	0.233
HCC-366		1.09	1	0.168	0.145	0.642	0.512	0.613	0.565	0.504	0.383	0.385	0.175	0.345	0.244	0.279	0.403	0.306	0.211	0.122
NCI-H2347	0.988	1.17	0.975	0.756	0.781	0.563	0.359	0.544	0.455	0.538	0.721	0.65	0.598	0.575	0.597	0.588	0.539	0.45	0.49	0.476
IA-LM	0.845	0.957	0.638	0.18	0.112						0.947	0.851	0.894	1.25	0.96	0.837	1.21	0.937	0.946	0.975
